# Results as given in article doi:10.1101/2021.10.07.463234v2 (biorxiv, 2021).
# Counter-ions that a name gives are not always drawn.
# Target: SARS-CoV-2 Mac1 (Severe acute respiratory syndrome coronavirus 2, UniProt P0DTD1)
# Assay: biochemical
# Conditions: 100 µM; inhibitor
row,Structure (SMILES),%inhibition [%]
1,COc1ccccc1OCC(O)CN1CCN(CC(=O)Nc2c(C)cccc2C)CC1 (stereo not shown) [Ranolazine 2HCl],0
2,N=C(N)NCCN1CCCCCCC1 [Guanethidine Monosulfate],5.593
3,"COc1cc2nccc(Oc3ccc(NC(=O)C4(C(=O)Nc5ccc(F)cc5)CC4)cc3)c2cc1OC [Cabozantinib (XL184, BMS-907351)]",25.14
4,CCCN[C@H]1CCc2nc(N)sc2C1 [Pramipexole 2HCl Monohydrate],5.796
5,COc1ccc(NC(=O)c2ccc(C(=N)N(C)C)cc2)c(C(=O)Nc2ccc(Cl)cn2)c1 [Betrixaban],0
6,COc1ccc(C[C@@H]2c3cc(OC)c(OC)cc3CC[N@+]2(C)CCC(=O)OCCCCCOC(=O)CC[N@@+]2(C)CCc3cc(OC)c(OC)cc3[C@H]2Cc2ccc(OC)c(OC)c2)cc1OC [Cisatracurium Besylate],1.897
7,CC[C@H]1OC(=O)[C@H](C)[C@@H](O[C@H]2C[C@@](C)(OC)[C@@H](O)[C@H](C)O2)[C@H](C)[C@@H](O[C@@H]2O[C@H](C)C[C@H](N(C)C)[C@H]2O)[C@](C)(O)C[C@@H](C)CN(C)[C@H](C)[C@@H](O)[C@]1(C)O [Azithromycin],5.483
8,CCC[C@H](NC(=O)[C@@H]1[C@H]2CCC[C@H]2CN1C(=O)[C@@H](NC(=O)[C@@H](NC(=O)c1cnccn1)C1CCCCC1)C(C)(C)C)C(=O)C(=O)NC1CC1 [Telaprevir (VX-950)],0
9,CNCC[C@H](Oc1cccc2ccccc12)c1cccs1 [Duloxetine HCl],0

# Same assay, conditions: read-out: %inhibition
row,Structure (SMILES),inhibition at 100 µM [%]
1,O=C(O)CCNC(=O)c1ccccc1 [Betamipron],7.69
2,COC(=O)C1=C(C)NC(C)=C(C(=O)OCCN2CCN(C(c3ccccc3)c3ccccc3)CC2)C1c1cccc([N+](=O)[O-])c1 (stereo not shown) [Manidipine 2HCl],0
3,O=C(Nc1ccccc1)OCC(CN1CCCCC1)OC(=O)Nc1ccccc1 (stereo not shown) [Diperodon HCl],0.82
4,NC(=O)N/N=C/c1ccc([N+](=O)[O-])o1 [Nitrofural],0
5,c1ccc(CC2=NCCN2)cc1 [Tolazoline HCl],7.01
6,OC1C[C@H]2CC[C@@H](C1)N2 (stereo partly shown) [Nortropine Hydrochloride],6.37
7,CC(C(=O)O)c1ccc(C(=O)c2cccs2)cc1 (stereo not shown) [Suprofen],18
8,CCc1cc(/C(C)=N/OCc2ccc(C3CCCCC3)c(C(F)(F)F)c2)ccc1CN1CC(C(=O)O)C1 [BAF312 (Siponimod)],26.1
9,OC[C@@H](O)CN1CCN(c2ccccc2)CC1 [Levodropropizine],4.43
10,CC(=C(CCOC(=O)C(C)C)SSC(CCOC(=O)C(C)C)=C(C)N(C=O)Cc1cnc(C)nc1N)N(C=O)Cc1cnc(C)nc1N (stereo in doubt) [Sulbutiamine],12.8
11,Cc1c(-c2ccccc2)oc2c(C(=O)OCCN3CCCCC3)cccc2c1=O [Flavoxate HCl],0
12,C[N+]1(C)[C@@H]2CC[C@H]1C[C@@H](OC(=O)C(O)c1ccccc1)C2 (stereo partly shown) [Homatropine Methylbromide],0
13,CC(C)Cc1ccc(C(C)C(=O)O)cc1 (stereo not shown) [Ibuprofen],0
14,CCCOc1ccc(C(=O)OCCN(CC)CC)cc1N [Proparacaine HCl],13
15,COc1cc(C)c(/C=C/C(C)=C/C=C/C(C)=C/C(=O)O)c(C)c1C [Acitretin],7.72
16,COc1ccc2c(c1)[C@]13CCCC[C@@H]1[C@H](C2)N(C)CC3 [Dextromethorphan hydrobromide hydrate],8.58
17,Nc1nc(F)nc2c1ncn2[C@@H]1O[C@H](CO)[C@@H](O)[C@@H]1O [Fludarabine],12.7
18,[O-][n+]1cccc(CO)c1 [Mepiroxol],12.3
19,S=c1nc[nH]c2nc[nH]c12 [6-Mercaptopurine (6-MP) Monohydrate],4.11
20,CN(C)CCOc1ccc(/C(=C(/CCCl)c2ccccc2)c2ccccc2)cc1 [Toremifene Citrate],21.7
21,NC(=O)CN1CCCC1=O [Piracetam],9.88

row,Structure (SMILES),inhibition at 100 µM [%]
1,CN[C@@H]1[C@@H](O)[C@@H](O[C@@H]2[C@@H](O)[C@H](O[C@H]3O[C@H](CN)[C@@H](O)[C@H](O)[C@H]3O)[C@@H](N)C[C@H]2NC(=O)[C@@H](O)CN)OC[C@]1(C)O [Isepamicin Sulphate],5.6
2,Cc1ccccc1C(=O)Nc1ccc(C(=O)N2CCCC(N(C)C)c3ccccc32)cc1 (stereo not shown) [Mozavaptan],21.9
3,C[N+]1(C)CCCC(OC(=O)C(O)(c2ccccc2)c2ccccc2)C1 (stereo not shown) [Mepenzolate Bromide],0
4,CNS(=O)(=O)CCc1ccc2[nH]cc(C3CCN(C)CC3)c2c1 [Naratriptan HCl],0
5,CN1CCN(c2ccc(C(=O)Nc3n[nH]c4ccc(Cc5cc(F)cc(F)c5)cc34)c(NC3CCOCC3)c2)CC1 [Entrectinib (RXDX-101)],8.59
6,CN(C)[C@@H]1C(=O)C(C(N)=O)=C(O)[C@@]2(O)C(=O)C3=C(O)c4c(O)cccc4[C@@](C)(O)[C@H]3C[C@@H]12 [Tetracycline HCl],22.7
7,CC(C)OC(=O)OCOP(=O)(CO[C@H](C)Cn1cnc2c(N)ncnc21)OCOC(=O)OC(C)C [Tenofovir Disoproxil Fumarate],0
8,CC(C)(C)C(=O)OCOP(=O)(COCCn1cnc2c(N)ncnc21)OCOC(=O)C(C)(C)C [Adefovir Dipivoxil],37.1
9,CO[C@H]1/C=C/O[C@@]2(C)Oc3c(C)c(O)c4c(O)c(c(/C=N/N5CCN(C6CCCC6)CC5)c(O)c4c3C2=O)NC(=O)/C(C)=C\C=C\[C@H](C)[C@H](O)[C@@H](C)[C@@H](O)[C@@H](C)[C@H](OC(C)=O)[C@@H]1C [Rifapentine],26.7
10,Cc1ncc([N+](=O)[O-])n1CC(C)O (stereo not shown) [Secnidazole],34.4
11,Cc1cccc(-c2nn3c(c2-c2ccnc4ccc(C(N)=O)cc24)CCC3)n1 [Galunisertib (LY2157299)],0
12,CCc1c2c(nc3ccc(OC(=O)N4CCC(N5CCCCC5)CC4)cc13)-c1cc3c(c(=O)n1C2)COC(=O)[C@]3(O)CC [Irinotecan HCl Trihydrate],0
13,O=C(O)CSc1nnc(Br)n1-c1ccc(C2CC2)c2ccccc12 [Lesinurad],2.49
14,C#C[C@]1(O)CC[C@H]2[C@@H]3CCc4cc(OC)ccc4[C@H]3CC[C@@]21C [Mestranol],0
15,CC#C[C@]1(O)CC[C@H]2[C@@H]3CCC4=CC(=O)CCC4=C3[C@@H](c3ccc(N(C)C)cc3)C[C@@]21C [Mifepristone],8.31
16,CCN1CCN(Cc2ccc(Nc3ncc(F)c(-c4cc(F)c5nc(C)n(C(C)C)c5c4)n3)nc2)CC1 [Abemaciclib],4.16
17,CCCCCCCCCCC[C@@H](C[C@@H]1OC(=O)[C@H]1CCCCCC)OC(=O)[C@H](CC(C)C)NC=O [Orlistat],0
18,C#C[C@]1(O)CC[C@H]2[C@@H]3CCC4=CC(=O)CC[C@@H]4[C@H]3CC[C@@]21CC [Levonorgestrel],53.4
19,OCCOc1ccc(/C(=C(/CCCl)c2ccccc2)c2ccccc2)cc1 [Ospemifene],16.8
20,CC(C)n1c(/C=C/[C@@H](O)C[C@@H](O)CC(=O)O)c(-c2ccc(F)cc2)c2ccccc21 (racemic) [Fluvastatin Sodium],30
21,C[C@H]1C[C@@H]2[C@H]([C@@H](O)C[C@@]3(C)[C@H]2CC[C@]3(O)C(=O)CO)[C@@]2(C)C=CC(=O)C=C12 [Methylprednisolone],39.6

row,Structure (SMILES),inhibition at 100 µM [%]
1,Nc1nc(N)nc(NC2CC2)n1 [Cyromazine],20.5
2,Cc1ncc(CNC(=O)N(CCCl)N=O)c(N)n1 [Nimustine Hydrochloride],0
3,CN[C@@H]1[C@@H](O)[C@@H](O[C@@H]2[C@@H](O)[C@H](O[C@H]3OC(CN)=CC[C@H]3N)[C@@H](N)C[C@H]2N)OC[C@]1(C)O [Sisomicin sulfate],0
4,NC(=O)[C@@H]1CC[C@@H]2CN1C(=O)N2OS(=O)(=O)O [Avibactam sodium],0
5,O=C1[C@@H]2[C@H]3CC[C@H](C3)[C@@H]2C(=O)N1C[C@@H]1CCCC[C@H]1CN1CCN(c2nsc3ccccc23)CC1 [lurasidone],0
6,CCC(C)(C)C(=O)O[C@H]1C[C@@H](C)C=C2C=C[C@H](C)[C@H](CC[C@@H]3C[C@@H](O)CC(=O)O3)[C@H]21 [Simvastatin],14
7,CC(C)OC(=O)C(C)(C)Oc1ccc(C(=O)c2ccc(Cl)cc2)cc1 [Fenofibrate],28.9
8,O=C(O)/C=C/C(=O)O [Fumaric acid],1.89
9,CS(=O)(=O)c1ccc(C(=O)Nc2ccc(Cl)c(-c3ccccn3)c2)c(Cl)c1 [Vismodegib (GDC-0449)],0
10,CCOC(=O)[C@@H](N)Cc1ccc(-c2cc(O[C@H](c3ccc(Cl)cc3-n3ccc(C)n3)C(F)(F)F)nc(N)n2)cc1 [Telotristat Etiprate (LX 1606 Hippurate)],0
11,CNC1CCCN(c2c(F)cc3c(=O)c(C(=O)O)cn(C4CC4)c3c2OC)C1 (stereo not shown) [Balofloxacin],0
12,NC(=O)N1c2ccccc2CC(=O)c2ccccc21 [Oxcarbazepine],0
13,CC(CN1c2ccccc2Sc2ccccc21)N(C)C (stereo not shown) [Promethazine HCl],0
14,Nc1ccccc1NC(=O)c1ccc(CNC(=O)OCc2cccnc2)cc1 [Entinostat (MS-275)],33.3
15,COc1nccnc1NS(=O)(=O)c1ccc(N)cc1 [Sulfalene(SMPZ)],5.42
16,CCN1CCCC1CNC(=O)c1cc(S(=O)(=O)CC)c(N)cc1OC (stereo not shown) [Amisulpride],7.08
17,CC[C@@H]1C(=O)N(C)c2cnc(Nc3ccc(C(=O)N[C@H]4CC[C@H](N5CCN(CC6CC6)CC5)CC4)cc3OC)nc2N1C(C)C [Volasertib (BI 6727)],0
18,"CC1(C)OC(=O)NC1=O [5,5-Dimethyloxazolidine-2,4-dione]",0.163
19,CCOc1nc2cccc(C(=O)OC(C)OC(=O)OC3CCCCC3)c2n1Cc1ccc(-c2ccccc2-c2nn[nH]n2)cc1 (stereo not shown) [Candesartan Cilexetil],0
